Source: US12010991B1, “Microemulsion with disinfectant properties” (priority 2021, dated 2024)
Where two headings read alike, the source gives them in different places.

For `Cc1ccc(C(C)C)cc1O` [Example 2, Carvacerol], the “H2O (clarity)” value (Solvent C8-10 Acid Ethanol, Surfactant/Solubilizer Polysorbate 20) was “Clear”, the “H2O (clarity)” value (Solvent Ethanol, Surfactant/Solubilizer Polysorbate 20) was “Cloudy” and the “H2O (clarity)” value (Solvent NONE, Surfactant/Solubilizer Polysorbate 20 Polysorbate 80) was “Clear”. The “H2O (clarity)” value (Solvent NONE, Surfactant/Solubilizer Quat 242 Ti-Nat) was “Clear”, the “H2O (clarity)” value (Solvent Propanediol, Surfactant/Solubilizer AB-1 (first entry)) was “Not Clear” and the “H2O (clarity)” value (Solvent Propanediol, Surfactant/Solubilizer AB-1 (second entry)) was “Not Clear”. For the same compound, the “H2O (clarity)” value (Solvent Propanediol, Surfactant/Solubilizer Polyglycerol) was “Not Clear”, the “H2O (clarity)” value (Solvent Propanediol, Surfactant/Solubilizer Polyglycerol D9) was “Not Clear” and the “H2O (clarity)” value (Solvent Propanediol, Surfactant/Solubilizer Polyglycerol D9 SugarNate) was “Not Clear”. For the same compound, the “H2O (clarity)” value (Solvent Propanediol, Surfactant/Solubilizer Quat 242 Ti-Nat) was “Not Clear”, the “H2O (clarity)” value (Solvent Propanediol, Surfactant/Solubilizer Quat 242 Ti-Nat AB-1) was “Not Clear” and the “H2O (clarity)” value (Solvent Propanediol, Surfactant/Solubilizer SugaNate 160) was “Not Clear”.
